Results published in patent US6432995B1, “Aromatic heterocyclic compounds and their use as anti-inflammatory agents” (Boehringer Ingelheim Pharmaceuticals, Inc., priority 1997, dated 2002).

Q: With Cc1ccc(-n2nc(C(C)(C)C)cc2NC(=O)Nc2ccc(F)cc2)cc1C [Example 32, 1-(5-tert-Butyl-2-(3,4-dimethylphenyl)-2H-pyrazol-3-yl)-3-(4-fluorophenyl)urea] as the compound, how does the melting point read?
A: 223 to 225 °C
